Test results published in publication PMC9104798, “Plant Alkaloid Tetrandrine Is a Nuclear Receptor 4A1 Antagonist and Inhibits Panc-1 Cell Growth In Vitro and In Vivo” (International Journal of Molecular Sciences, 2022).

Target: nuclear receptor 4A1 (NR4A1) (Homo sapiens, UniProt P22736)
Assay: tryptophan fluorescence quenching with NR4A1 LBD ([…])
Format: binding

Sequence of nuclear receptor 4A1 (NR4A1) (P22736 351-598 limits assumed): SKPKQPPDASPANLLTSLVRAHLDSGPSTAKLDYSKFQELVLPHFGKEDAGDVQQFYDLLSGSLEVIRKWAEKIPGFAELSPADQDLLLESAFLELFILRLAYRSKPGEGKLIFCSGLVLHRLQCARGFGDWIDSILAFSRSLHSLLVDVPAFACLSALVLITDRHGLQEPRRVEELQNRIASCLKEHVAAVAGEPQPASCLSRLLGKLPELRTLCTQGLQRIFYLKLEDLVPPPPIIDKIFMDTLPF

- Kd: 10.6 µM
Structure (SMILES): COc1ccc2cc1Oc1ccc(cc1)C[C@H]1c3cc(c(OC)cc3CCN1C)Oc1c(OC)c(OC)cc3c1[C@H](C2)N(C)CC3 [TTD, tetrandrine]
